In patent US7087227B2, “Cartilage composites and methods of use” (Barnes-Jewish Hospital, priority 1997, dated 2006):

Columns and labels:
Format in all cases: cell-based, human
[1] = system: matrix metalloproteinases (MMPs); assay: Zymogram and Western analysis of chondrocyte-derived metalloproteinases in spent media; conditions: substrate gels
Experimental: FIG. 10, in two parts, FIGS. 10A and 10B, represent SDS-substrate gel (zymogram) analysis of cytokine-mediated production of matrix metalloproteinases (MMPs) in fetal articular chondrocytes (neocartilage disks). Negative staining indicates the molecular weight (MW) in kDa of the active proteases. • Spent media were collected 72 h post stimulation with the indicated cytokine (5 ng/ml) and concentrated 16-fold by dialysis/lyophilization. • Unreduced samples were separated on 10% SDS substrate gels containing either gelatin (FIG. 10A) or casein (FIG. 10B) 0.1%. • MMPs were renatured following SDS removal by extensive washing in 2.5% Triton X-100 and lytic bands visualized via negative staining with Coomassie blue, following incubation in a calcium and zinc containing buffer for 4 hr at 37° C. • Latent enzyme activity is shown in lanes 1–4, while the corresponding active enzymes were prepared by preincubation with 1 mM 4-aminophenyl mercuric acetate (APMA lanes 5–8).
Conditioned media were thawed and identification of chondrocyte-derived metalloproteinases assessed by zymogen substrate gel electrophoresis, as well as Western analysis following SDS-PAGE. Further studies examined the effect of activating agents on synthesis of S-GAG and collagen via radiolabeled incorporation.

neocartilage [2] = assay: Cytokine-induced resorption of neocartilage (matrix content, gross and histological appearance); conditions: day 28 tissue stimulated for additional 36 days
neocartilage [3] = assay: as above
Experimental: It is seen that chronic IL-1 stimulation alters cartilage staining for proteoglycan and collagen. • Day 60 neocartilages were treated with 1 ng/ml rhIL-1β for 30 days. Fresh media and cytokine were added every 48 hours. • Neocartilages were harvested (day 90) and stained with safranin-O and pentachrome as before. […] Magnification×100.
Neocartilage cultures were established in 24 or 48 well plastic dishes (Corning) as described above (Example 1) and grown to day 30. The hyaline cartilage matrix was then stimulated to undergo autolytic degradation following 30 day activation with increasing concentrations of a variety of cytokine and/or inflammatory agents, including IL-1, Il-6, IL-17, TNF-α, LPS, and phorbol ester. Culture media were collected every 48 hours and subsequently changed by the addition of fresh media±inflammatory stimuli.
Cultures were terminated and the biochemical composition of the neocartilage matrix that remained was analyzed as described previously. Parallel samples were processed for light and transmission electron microscopy for histological evaluation of extracellular matrix components.

Fetal chondrocytes = assay: Effect of heparin on neocartilage formation; conditions: day 10–28
Experimental: Day 10 neocartilage was treated with increasing amounts of heparin for 18 days. Fresh media, containing heparin and ascorbate were added every 72–96 hrs. Media were collected and frozen for future analysis. Cultures were harvested on day 28 and the S-GAG content (FIG. 18A) and OH-proline content (FIG. 18B) of the resultant neocartilage assayed as described hereinbelow.
Fetal chondrocytes were grown as described above and subdivided into three groups on day 10 to investigate the effect of heparin on neocartilage formation. In low doses, heparin is known to increase the activity of certain growth factors, for example the fibroblast growth factor (FGF) family of related proteins, by acting as a co-factor, whereas greater amounts of heparin will strip away certain growth factors from the extracellular matrix and thereby impede tissue repair.
Sterile heparin was added to the media at a final concentration of […] for the duration of the culture period (i.e. from day 10–28). Media were exchanged every 3–4 days and recovered for electrophoretic analysis of secreted proteins. Cell layers were removed and the S-GAG (FIG. 18A), hydroxy proline (FIG. 18B), and DNA content quantitated as before (FIG. 18).

[4] = cytokine 1.0 (ng/ml), chronic treatment
[5] = cytokine 5.0 (ng/ml), chronic treatment

`CCCCCCCCCCCCCC(=O)O[C@@H]1[C@@H](C)[C@@]2(O)[C@@H](C=C(CO)C[C@]3(O)C(=O)C(C)=C[C@@H]23)[C@@H]2C(C)(C)[C@]12OC(C)=O` [Phorbol ester] was tested, and the metalloproteinase synthesis induced [1] was “specifically induced synthesis of gelatinase B”.

“IL-1β: cytokine used to stimulate resorption of neocartilage” was tested, and the “gross appearance of neocartilage on removal from plastic surface” value (neocartilage [2]) was “retracted considerably upon removal from the plastic surface”, the “OH-proline content of tissue” value (neocartilage [3]; cytokine 0.1 ng/ml, chronic treatment) was 572 ± 105 pmol and the “OH-proline content of tissue” value (neocartilage [3]; [4]) was 541 ± 16 pmol. The “OH-proline content of tissue” value (neocartilage [3]; [5]) was 501 ± 48 pmol, the “OH-proline content of tissue” value (neocartilage [3]; cytokine + 50 mU plasminogen, cytokine concentration not printed on the line) was 460 ± 16 pmol and the “thickness of the synthesized matrix” value (neocartilage [3]; day 60 neocartilage, 1 ng/ml for 30 days) was “significant reduction in the thickness of the synthesized matrix”. The “safranin-O and pentachrome staining intensity” value (neocartilage [3]; day 60 neocartilage, 1 ng/ml for 30 days, versus untreated controls) was “Staining intensity is markedly reduced”.

In the case of TNF-α, the “gross appearance of neocartilage on removal from plastic surface” value (neocartilage [2]) is reported as “retracted considerably upon removal from the plastic surface”, the “OH-proline content of tissue” value (neocartilage [3]; [4]) is reported as 403 pmol and the “OH-proline content of tissue” value (neocartilage [3]; [5]) is reported as 355 pmol.

In the case of heparin, the “defect in matrix deposition” value (Fetal chondrocytes; 2 μg/ml) is reported as “much less severe” and the “inhibition in OH-proline (matrix deposition)” value (Fetal chondrocytes; highest concentration of heparin (20 μg)) is reported as 33%.

B1: plasminogen: added to enhance the activation of latent MMPs via the plasminogen activator/plasmin cascade (protein, UniProt P00747 20-810, looked up)
Plasminogen: EPLDDYVNTQGASLFSVTKKQLGAGSIEECAAKCEEDEEFTCRAFQYHSKEQQCVIMAENRKSSIIIRMRDVVLFEKKVYLSECKTGNGKNYRGTMSKTKNGITCQKWSSTSPHRPRFSPATHPSEGLEENYCRNPDNDPQGPWCYTTDPEKRYDYCDILECEEECMHCSGENYDGKISKTMSGLECQAWDSQSPHAHGYIPSKFPNKNLKKNYCRNPDRELRPWCFTTDPNKRWELCDIPRCTTPPPSSGPTYQCLKGTGENYRGNVAVTVSGHTCQHWSAQTPHTHNRTPENFPCKNLDENYCRNPDGKRAPWCHTTNSQVRWEYCKIPSCDSSPVSTEQLAPTAPPELTPVVQDCYHGDGQSYRGTSSTTTTGKKCQSWSSMTPHRHQKTPENYPNAGLTMNYCRNPDADKGPWCFTTDPSVRWEYCNLKKCSGTEASVVAPPPVVLLPDVETPSEEDCMFGNGKGYRGKRATTVTGTPCQDWAAQEPHRHSIFTPETNPRAGLEKNYCRNPDGDVGGPWCYTTNPRKLYDYCDVPQCAAPSFDCGKPQVEPKKCPGRVVGGCVAHPHSWPWQVSLRTRFGMHFCGGTLISPEWVLTAAHCLEKSPRPSSYKVILGAHQEVNLEPHVQEIEVSRLFLEPTRKDIALLKLSSPAVITDKVIPACLPSPNYVVADRTECFITGWGETQGTFGAGLLKEAQLPVIENKVCNRYEFLNGRVQSTELCAGHLAGGTDSCQGDSGGPLVCFEKDKYILQGVTSWGLGCARPNKPGVYVRVSRFVTWIEGVMRNN
For B1, the “OH-proline content of tissue” value (neocartilage [3]; 50 mU plasminogen alone, no cytokine, chronic treatment) was 1648 ± 72 pmol.
